Measured values as given in patent US20120100361A1, “ANTISEPTIC COMPOSITION FOR ENGINEERING WOOD PRODUCTION, AND ENGINEERING WOOD” (SDS BIOTECH K.K., priority 2009, published 2012).

Experiments:
fungus cellar soil-bed [1] = test: Fungus cellar soil-bed test of preservative LVL (JIS K1571:2004); details: 25° C., grade 0 sound condition to 5 out of shape due to the decay
Procedure: (§1) 1000 g of the phenol resin-based glue Deernol D-117 (manufactured by Oshika Corporation), 70 g of wheat flour and 100 g of calcium carbonate were mixed and well kneaded. A solution of each of the compounds of Example 1 and Comparative Example 1, 2 and 5 to 25 was added to the kneaded product so that the final concentrations of the compound in the wood become 150, 100, 50 and 25 g/m^3 and further kneaded. 18 g of the above kneaded product was applied onto each of the surface of glue line of the three Radiata pine veneer sheets having an area of 30 x 30 cm and thickness of 3 mm. After bonding the three sheets to each other, the sheets were subjected to cold pressing at room temperature for 20 minutes and the thermal pressure of 140° C. (10 kgf/cm^2) was applied to the sheets for two minutes to obtain the target LVL. Each of the prepared LVL was processed into the size of 20×20×9 mm to serve as a test sample.
The preservative LVL was prepared in the same manner in Preparation Example 3. Each of the prepared LVL was processed into the size of 9×9×100 mm to serve as a test sample.
(§2) The samples of the plywood and LVL prepared in Preparation Examples 4 and 5 were evaluated by the fungus cellar soil-bed test according to JIS K1571:2004. The weather resistance operation and the test method for the antiseptic effect were performed according to the above test method. The test was carried out for six months setting the test temperature to 25° C. (because the grade average of the decay damage of the non-treated test samples exceeded 2.5 in six months). […] The effect in the glue line treatment was actually investigated with respect to a number of existing antiseptics, and it was confirmed that only epoxyconazole is suitable for the glue line treatment at a low concentration.

Fomitopsis palustris [2] = test: Test for antiseptic effects of preservative LVL (JIS K1571:2004); format: cell-based; details: phenol resin
Procedure: as §1
(§3) The samples of the plywood and LVL prepared in Preparation Examples 2 and 3 were evaluated by the test for antiseptic effects for the drug pressure treatment according to JIS K1571:2004. The weather resistance operation and the test method for the antiseptic effect were performed according to the above test method.

Trametes versicolor [3] = test: as above; format: cell-based; details: phenol resin
Procedure: as §1, §3

fungus cellar soil-bed [4] = test: Fungus cellar soil-bed test of preservative plywood (JIS K1571:2004); details: for Grade average of the decay damage of five test samples: plywood, six months, 25° C., grade 0 sound condition to 5 out of shape due to the decay
Procedure: (§4) 1000 g of urea melamine resin (PWP-60, manufactured by Oshika Corporation) was added to 180 g of wheat flour and fully kneaded to thereby obtain a kneaded product. 8 g of ammonium chloride was added as a hardening agent to the kneaded product, and a solution of each of the compounds of Example 1 and Comparative Example 1, 2 and 5 to 25 was further added thereto so that the final concentrations of the compound in the wood become 150, 100, 50 and 25 g/m^3 and kneaded. 18 g of the above kneaded product was applied onto each of the bonding plane of the three red lauan veneer sheets having an area of 30 x 30 cm and thickness of 0.85 mm/2.4 mm/0.85 mm. After bonding the three sheets to each other, the sheets were subjected to cold pressing at room temperature for 20 minutes and the thermal pressure of 120° C. (10 kgf/cm^2) was applied to the sheets for two minutes to obtain the target plywood. Each of the prepared plywood was processed into the size of 20×20×4.1 mm to serve as a test sample.
The preservative plywood was prepared in the same manner in Preparation Example 2. Each of the prepared plywood was processed into the size of 8.9 x 8.9×100 mm to serve as a test sample.
as §2

Fomitopsis palustris [5] = test: Test for antiseptic effects of preservative plywood (JIS K1571:2004); format: cell-based; details: for average rate of decrease in weight: plywood, urea melamine resin, Fomitopsis palustris
Procedure: as §4, §3

Trametes versicolor [6] = test: as above; format: cell-based; details: plywood, urea melamine resin, Trametes versicolor
Procedure: as §4, §3

[7] = Test for miscibility with a phenol resin glue; format: physicochemical; design: key to Phenol resin status after 60 minutes: ∘: No change; x: Obvious increase in the viscosity was seen and it seems impossible to apply the composition onto the veneer sheet; details: 10% (w/w) solution added to phenol resin glue Deernol D-117 kneaded product; viscosity change visually observed for 60 minutes
Procedure: The following compounds, which are known to have wood preservative activity, are dissolved in methyl ethylene triglycol to reach a concentration of 10% (w/w) to thereby obtain a solution of each of the compounds.
1000 g of phenol resin-based glue Deernol D-117 (manufactured by Oshika Corporation), 70 g of wheat flour and 100 g of calcium carbonate were mixed and well kneaded. Each of the solutions of Example 1 and Comparative Example 1 to 25 was added to 17 g of the kneaded product and mixed well together. The viscosity change of the glue was visually observed for 60 minutes. […] Although a number of documents listed as the prior art documents and the like teach that quaternary ammonium compounds can be applied to the glue line treatment, it is clear that those compounds have a problem for practical use (Comparative Examples 3 and 4). On the other hand, it was confirmed that the other compounds including that of Example has no problem from the viewpoint of compatibility.

[8] = treated amount 25 g/m^3, six months
[9] = treated amount 50 g/m^3, six months
[10] = treated amount 100 g/m^3, six months
[11] = treated amount 150 g/m^3, six months

SMILES	Grade average of the decay damage of five test samples (fungus cellar soil-bed [1]; [8])	Grade average of the decay damage of five test samples (fungus cellar soil-bed [1]; [9])	Grade average of the decay damage of five test samples (fungus cellar soil-bed [1]; [10])	Grade average of the decay damage of five test samples (fungus cellar soil-bed [1]; [11])	average rate of decrease in weight (Fomitopsis palustris [2]; treated amount 25 g/m^3)	average rate of decrease in weight (Fomitopsis palustris [2]; treated amount 50 g/m^3)	average rate of decrease in weight (Fomitopsis palustris [2]; treated amount 100 g/m^3)	average rate of decrease in weight (Fomitopsis palustris [2]; treated amount 150 g/m^3)	average rate of decrease in weight (Trametes versicolor [3]; treated amount 25 g/m^3)	average rate of decrease in weight (Trametes versicolor [3]; treated amount 50 g/m^3)	average rate of decrease in weight (Trametes versicolor [3]; treated amount 100 g/m^3)	average rate of decrease in weight (Trametes versicolor [3]; treated amount 150 g/m^3)	Grade average of the decay damage of five test samples (fungus cellar soil-bed [4]; treated amount 25 g/m^3)	Grade average of the decay damage of five test samples (fungus cellar soil-bed [4]; treated amount 50 g/m^3)	Grade average of the decay damage of five test samples (fungus cellar soil-bed [4]; treated amount 100 g/m^3)	Grade average of the decay damage of five test samples (fungus cellar soil-bed [4]; treated amount 150 g/m^3)	average rate of decrease in weight (Fomitopsis palustris [5]; treated amount 25 g/m^3)	average rate of decrease in weight (Fomitopsis palustris [5]; treated amount 50 g/m^3)	average rate of decrease in weight (Fomitopsis palustris [5]; treated amount 100 g/m^3)	average rate of decrease in weight (Fomitopsis palustris [5]; treated amount 150 g/m^3)	further results
CCCCNC(=O)OCC#CI [Comparative Example 23, 3-iode-2-propynyl-n-butylcarbamate]	3.0	3.4	3.2	2.6	X (The average rate of decrease in weight was 3% or more.)	X (The average rate of decrease in weight was 3% or more.)	X (The average rate of decrease in weight was 3% or more.)	X (The average rate of decrease in weight was 3% or more.)	X (The average rate of decrease in weight was 3% or more.)	X (The average rate of decrease in weight was 3% or more.)	X (The average rate of decrease in weight was 3% or more.)	X (The average rate of decrease in weight was 3% or more.)	2.8	2.8	3.2	2.8	X (The average rate of decrease in weight was 3% or more.)	X (The average rate of decrease in weight was 3% or more.)	X (The average rate of decrease in weight was 3% or more.)	X (The average rate of decrease in weight was 3% or more.)	average rate of decrease in weight (Trametes versicolor [6]; treated amount 25 g/m^3): X (The average rate of decrease in weight was 3% or more.); average rate of decrease in weight (Trametes versicolor [6]; treated amount 50 g/m^3): X (The average rate of decrease in weight was 3% or more.); average rate of decrease in weight (Trametes versicolor [6]; treated amount 100 g/m^3): X (The average rate of decrease in weight was 3% or more.); average rate of decrease in weight (Trametes versicolor [6]; treated amount 150 g/m^3): X (The average rate of decrease in weight was 3% or more.); Phenol resin status after 60 minutes [7]: ∘
Fc1ccc([C@]2(Cn3cncn3)O[C@H]2c2ccccc2Cl)cc1 (racemic) [Example 1, Epoxyconazole]	0.4	0	0	0	◯ (The average rate of decrease in weight was less than 3%.)	◯ (The average rate of decrease in weight was less than 3%.)	◯ (The average rate of decrease in weight was less than 3%.)	◯ (The average rate of decrease in weight was less than 3%.)	◯ (The average rate of decrease in weight was less than 3%.)	◯ (The average rate of decrease in weight was less than 3%.)	◯ (The average rate of decrease in weight was less than 3%.)	◯ (The average rate of decrease in weight was less than 3%.)	0.2	0	0	0	◯ (The average rate of decrease in weight was less than 3%.)	◯ (The average rate of decrease in weight was less than 3%.)	◯ (The average rate of decrease in weight was less than 3%.)	◯ (The average rate of decrease in weight was less than 3%.)	amount showing sufficient antiseptic effect (fungus cellar soil-bed [4]; fungus cellar soil-bed test, plywood and LVL, text summary of Tables 4 and 5): 25 to 50 g/m^3; amount showing sufficient antiseptic effect (Fomitopsis palustris [5]; glue line method, plywood and LVL, both fungi, summary of Tables 2 and 3): 25 to 50 g/m^3; average rate of decrease in weight (Trametes versicolor [6]; treated amount 25 g/m^3): ◯ (The average rate of decrease in weight was less than 3%.); average rate of decrease in weight (Trametes versicolor [6]; treated amount 50 g/m^3): ◯ (The average rate of decrease in weight was less than 3%.); average rate of decrease in weight (Trametes versicolor [6]; treated amount 100 g/m^3): ◯ (The average rate of decrease in weight was less than 3%.); average rate of decrease in weight (Trametes versicolor [6]; treated amount 150 g/m^3): ◯ (The average rate of decrease in weight was less than 3%.); Phenol resin status after 60 minutes [7]: ∘
CO/C=C(/C(=O)OC)c1ccccc1Oc1cc(Oc2ccccc2C#N)ncn1 [Comparative Example 21, azoxystrobin]	3.0	3.6	3.4	2.8	X (The average rate of decrease in weight was 3% or more.)	X (The average rate of decrease in weight was 3% or more.)	X (The average rate of decrease in weight was 3% or more.)	X (The average rate of decrease in weight was 3% or more.)	X (The average rate of decrease in weight was 3% or more.)	X (The average rate of decrease in weight was 3% or more.)	X (The average rate of decrease in weight was 3% or more.)	X (The average rate of decrease in weight was 3% or more.)	3.0	3.0	3.0	2.8	X (The average rate of decrease in weight was 3% or more.)	X (The average rate of decrease in weight was 3% or more.)	X (The average rate of decrease in weight was 3% or more.)	X (The average rate of decrease in weight was 3% or more.)	average rate of decrease in weight (Trametes versicolor [6]; treated amount 25 g/m^3): X (The average rate of decrease in weight was 3% or more.); average rate of decrease in weight (Trametes versicolor [6]; treated amount 50 g/m^3): X (The average rate of decrease in weight was 3% or more.); average rate of decrease in weight (Trametes versicolor [6]; treated amount 100 g/m^3): X (The average rate of decrease in weight was 3% or more.); average rate of decrease in weight (Trametes versicolor [6]; treated amount 150 g/m^3): X (The average rate of decrease in weight was 3% or more.); Phenol resin status after 60 minutes [7]: ∘
